From patent US8952024B2, “Herbicidal pyrimidone derivatives” (E I du Pont de Nemours and Company, priority 2009, dated 2015)

Key:
Format in all cases: in vivo
[1] = tested on: deadnettle (henbit deadnettle, Lamium amplexicaule); experiment: Test B pre-/postemergence plant response; details: Postemergence
Procedure, shortened: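 Ratings reflect visual comparison with untreated controls 13 to 15 days after application, from 0 (no effect) to 100 (complete control). Application was preemergence to seeded loam/sand soil or postemergence to 1- to 4-leaf plants, with compound in a non-phytotoxic, surfactant-containing solvent.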

[2] = tested on: green foxtail (Setaria viridis); experiment: Test D pre-/postemergence plant response
Procedure, shortened: (§1)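 Ratings come from greenhouse-grown weeds in loam and sand treated pre- or postemergence (postemergence height 2 to 18 cm). Evaluation after 14–21 days, visual, relative to controls, on a 0–100 control scale.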

kochia (Kochia scoparia) = experiment: Test D pre-/postemergence plant response
Procedure, shortened: as §1

[3] = tested on: sowthistle (common sowthistle, Sonchus oleraceous); experiment: Test D pre-/postemergence plant response
Procedure, shortened: as §1

[4] = tested on: naked crabgrass (Digitaria nuda); experiment: Test D pre-/postemergence plant response
Procedure, shortened: as §1

[5] = tested on: spanishneedles (Bidens bipinnata); experiment: Test D pre-/postemergence plant response
Procedure, shortened: as §1

[6] = 31 g ai/ha, 0 to 100 scale (0 no effect, 100 complete control)
[7] = 125 g ai/ha, scale 0 to 100 (0 no effect, 100 complete control)
[8] = 250 g ai/ha, scale 0 to 100 (0 no effect, 100 complete control), 13 to 15 days
[9] = 62 g ai/ha, scale 0 to 100 (0 no effect, 100 complete control)
[10] = Postemergence, 31 g ai/ha, scale 0 to 100
[11] = Postemergence, 62 g ai/ha, scale 0 to 100 (0 no effect, 100 complete control)
[12] = Postemergence, 125 g ai/ha, scale 0 to 100 (0 no effect, 100 complete control)
[13] = Postemergence, 16 g ai/ha, scale 0 to 100
[14] = Preemergence, 16 g ai/ha, scale 0 to 100, 0 no effect, 100 complete control
[15] = Preemergence, 31 g ai/ha, scale 0 to 100 (0 no effect, 100 complete control)
[16] = Preemergence, 62 g ai/ha, scale 0 to 100
[17] = Preemergence, 125 g ai/ha, scale 0 to 100

Cc1ccc(Cl)cc1-n1c(-c2cccc(F)c2)ncc(C(=O)C2=C(O)CCCC2=O)c1=O [Compound 184]
Plant response rating, Deadnettle [1, 6]: 100 | Plant response rating, Deadnettle [1, 7]: 100 | Plant response rating, Deadnettle [1, 8]: 100

O=C1CCCC(O)=C1C(=O)c1cnc(-c2cccc(F)c2)n(C2CCCCC2)c1=O [Compound 187]
Plant response rating, Deadnettle [1, 6]: 80 | Plant response rating, Deadnettle [1, 8]: 100

O=C1CCCC(O)=C1C(=O)c1cnc(-c2cccs2)n(C2CCCCC2)c1=O [Compound 189]
Plant response rating, Deadnettle [1, 6]: 85 | Plant response rating, Deadnettle [1, 7]: 100 | Plant response rating, Deadnettle [1, 8]: 100

CCCn1c(-c2cccc(Cl)c2)ncc(C(=O)C2=C(O)CCCC2=O)c1=O [Compound 190]
Plant response rating, Deadnettle [1, 6]: 65 | Plant response rating, Deadnettle [1, 7]: 100 | Plant response rating, Deadnettle [1, 8]: 100

Cc1cc(-n2c(-c3cccc(F)c3)ncc(C(=O)C3=C(O)CCCC3=O)c2=O)ccc1F [Compound 191]
Plant response rating, Deadnettle [1, 6]: 90 | Plant response rating, Deadnettle [1, 9]: 100 | Plant response rating, Deadnettle [1, 7]: 100 | Plant response rating, Deadnettle [1, 8]: 100

O=C1CCCC(O)=C1C(=O)c1cnc(-c2ccc(F)cc2)n(C2CCCCC2)c1=O [Compound 197]
Plant response rating, Deadnettle [1, 6]: 100 | Plant response rating, Deadnettle [1, 9]: 100 | Plant response rating, Deadnettle [1, 7]: 100 | Plant response rating, Deadnettle [1, 8]: 100

COCCn1c(-c2cccc(C)c2)ncc(C(=O)C2=C(O)C3CCC(C3)C2=O)c1=O (stereo not drawn) [Compound 233]
Plant response rating, Foxtail, Green [2, 10]: 10 | Plant response rating, Foxtail, Green [2, 11]: 30 | Plant response rating, Foxtail, Green [2, 12]: 35 | Plant response rating, Foxtail, Green [2, 13]: 5 | Plant response rating, Foxtail, Green [2, 14]: 0 | Plant response rating, Foxtail, Green [2, 15]: 0 | Plant response rating, Foxtail, Green [2, 16]: 0 | Plant response rating, Foxtail, Green [2, 17]: 0 | Plant response rating, Kochia (kochia (Kochia scoparia); [10]): 20 | Plant response rating, Kochia (kochia (Kochia scoparia); [11]): 30 | Plant response rating, Kochia (kochia (Kochia scoparia); [12]): 35 | Plant response rating, Kochia (kochia (Kochia scoparia); [13]): 10 | Plant response rating, Kochia (kochia (Kochia scoparia); [14]): 0 | Plant response rating, Kochia (kochia (Kochia scoparia); [15]): 0 | Plant response rating, Kochia (kochia (Kochia scoparia); [16]): 20 | Plant response rating, Kochia (kochia (Kochia scoparia); [17]): 80 | Plant response rating, Sowthistle [3, 10]: 100 | Plant response rating, Sowthistle [3, 12]: 100 | Plant response rating, Sowthistle [3, 13]: 90 | Plant response rating, Sowthistle [3, 14]: 0 | Plant response rating, Sowthistle [3, 15]: 50 | Plant response rating, Sowthistle [3, 17]: 100 | Plant response rating, Crabgrass, Naked [4, 10]: 50 | Plant response rating, Crabgrass, Naked [4, 11]: 60 | Plant response rating, Crabgrass, Naked [4, 12]: 70 | Plant response rating, Crabgrass, Naked [4, 13]: 30 | Plant response rating, Crabgrass, Naked [4, 14]: 0 | Plant response rating, Crabgrass, Naked [4, 15]: 0 | Plant response rating, Crabgrass, Naked [4, 16]: 65 | Plant response rating, Crabgrass, Naked [4, 17]: 65 | Plant response rating, Spanishneedles [5, 10]: 35 | Plant response rating, Spanishneedles [5, 11]: 50 | Plant response rating, Spanishneedles [5, 12]: 60 | Plant response rating, Spanishneedles [5, 13]: 35 | Plant response rating, Spanishneedles [5, 14]: 0 | Plant response rating, Spanishneedles [5, 15]: 50 | Plant response rating, Spanishneedles [5, 17]: 95 | Plant response rating, Spanishneedles ([5]; Preemergence, rate not given, scale 0 to 100, 0 no effect, 100 complete control): 85
